Experimental data taken from PMC11187542, “Identification of fragments targeting SMYD3 using highly sensitive kinetic and multiplexed biosensor-based screening” (RSC Medicinal Chemistry, 2024).

Columns and labels:
SMYD3 (apo, native) = molecular target: T1, SMYD3 (apo, native) (Homo sapiens, UniProt Q9H7B4); assay: GCI biosensor kinetic screening, apo SMYD3 surface; assay type: binding
T1 construct: Full length recombinant SMYD3 was produced as previously reported; made in house; host or cells: E. coli BL21(DE3), in some cases Rosetta 2
T1 sequence (Q9H7B4 1-428): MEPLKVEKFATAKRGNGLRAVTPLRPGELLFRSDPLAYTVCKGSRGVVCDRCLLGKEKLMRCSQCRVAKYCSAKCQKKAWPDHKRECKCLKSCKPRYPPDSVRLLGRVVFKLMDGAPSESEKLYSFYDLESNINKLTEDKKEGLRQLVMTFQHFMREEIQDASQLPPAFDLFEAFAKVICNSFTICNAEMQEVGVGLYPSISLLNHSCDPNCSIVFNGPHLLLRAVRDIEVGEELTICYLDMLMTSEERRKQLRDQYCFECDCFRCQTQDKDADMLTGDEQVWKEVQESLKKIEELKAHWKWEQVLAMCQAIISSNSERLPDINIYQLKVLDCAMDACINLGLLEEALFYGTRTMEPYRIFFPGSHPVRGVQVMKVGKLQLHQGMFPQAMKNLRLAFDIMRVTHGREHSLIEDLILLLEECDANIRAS
Description: (§1) A multiplexed screening assay was set up with three different SMYD3 surfaces and a blank reference surface in flow channels 1–4 (FC1–FC4) (Fig. 2a), as described previously.[5] The apo SMYD3 surface detected fragments interacting anywhere on SMYD3, while a SMYD3 surface blocked by active site-specific tight-binding inhibitor EPZ031686 detected compounds binding elsewhere. The denatured surface served as a reference, detecting fragments binding to unfolded proteins, also potentially present to a significant degree in the other two surfaces.
After preparing the sensor surface and immobilising SMYD3, the functionality of the surface was assessed via analysis of interactions with the co-factor product S-adenosyl-homocysteine (SAH). It was used as a control in all experiments, confirming that sensor surfaces were intact. This was done using the novel multiple injection-based experimental design (Fig. 1) at 25 μM, i.e. in a weak binder mode (Fig. 2b).
(§2) The library was screened using the approach described in Fig. 1, i.e. injection of fragments at 250 μM for increasing durations of time in a single cycle, using a flow rate of 100 μL min^−1, data acquisition set to 40 Hz and with an association time of 5 s and dissociation of 20 s. Each fragment was addressed to all four channels and interactions with the native and blocked surfaces compared. The experimental conditions were chosen to ensure that the assay could reliably characterize the fast and transient interactions expected from typical fragments.
(§3) The kinetic screening of 1056 compounds was successfully completed in 72 hours. […] Hits were identified with full kinetic information using dissociation phases.
(§4) All interaction kinetic experiments were conducted with a GCI–flow-based biosensor (WAVEdelta, Creoptix AG/Malvern Panalytical) and PCH WAVEchip (Creoptix AG/Malvern Panalytical) sensor chips. The sensor chips were conditioned using injections of borate buffer (10 mM sodium tetraborate pH 8.5, 1 M NaCl). The running buffer composition, if not otherwise stated, was TBS buffer (50 mM Tris, 150 mM NaCl, 0.5 mM TCEP, 0.05% Tween 20, 1% DMSO, pH 8). SMYD3 was diluted to the desired concentration in 10 mM bis-Tris (pH 7.0) and amine coupled to the sensor surface of the PCH sensor chip. The sensor chip was functionalized at 25 °C by immobilising SMYD3 with EDC and NHS (Xantec) using an injection time of 420 s and a flow rate of 10 μL min^−1. The immobilisation levels ranged from 5000 pg mm^−2 to 18 500 pg mm^−2 surface mass to enable analysis of fragments spanning a broad range of affinities. After immobilization, the surface was deactivated with a running buffer containing 50 mM Tris for 420 s. The GCI data referencing and analysis were performed using WAVEcontrol V4.5 (Creoptix AG).
(§5) Kinetic measurements with controls and fragments were performed at 15 °C. Analysis of controls and follow up of hits was done using the multi cycle kinetic (MCK) injection of a concentration series for the same time, with a two-fold serial dilution starting at 250 μM for each compound. Solvent correction was performed ranging from 0.5–1.8% DMSO. Blank samples of the running buffer, 1× TBS (50 mM Tris, 150 mM NaCl, 0.5 mM TCEP, 0.05% Tween 20, 1% DMSO, pH 8), were injected during the measurements every fifth cycle. The experimental design illustrated in Fig. 1 was used for the screening against all four surfaces. The sensorgrams were adjusted to account for solvent correction and blank subtraction. Kinetic fitting was performed with the Direct Kinetics engine of WAVEcontrol software V4.5 (Creoptix AG) with a suitable fitting model.

[1] = molecular target: T2, SMYD3 in complex with active site-specific tight-binding inhibitor EPZ031686 (Homo sapiens, UniProt Q9H7B4); assay: GCI biosensor kinetic screening, active site blocked SMYD3 surface
T2 construct: Full length recombinant SMYD3 was produced as previously reported; made in house; host or cells: E. coli BL21(DE3), in some cases Rosetta 2
T2 sequence (Q9H7B4 1-428): T1 sequence (Q9H7B4 1-428)
Description: as §1, §2, §3, §4, §5

SMYD3 = molecular target: T3, SMYD3 (Homo sapiens, UniProt Q9H7B4); assay: GCI biosensor multi cycle kinetic confirmation of hits; assay type: binding; conditions: two-fold serial dilution starting at 250 μM, 15 °C, global fit 1:1 model
T3 construct: Full length recombinant SMYD3 was produced as previously reported; made in house; host or cells: E. coli BL21(DE3), in some cases Rosetta 2
T3 sequence (Q9H7B4 1-428): T1 sequence (Q9H7B4 1-428)
Method: Selected screening hits were also re-tested by conventional multi cycle kinetic analysis in order to confirm the interactions (some compounds were no longer available). Two variants of the GCI biosensor assay were set up, using different immobilisation levels, to allow the confirmation of hits over a broad range of affinities. […] The kinetics varied for the selected hits (ESI, ^† Fig. S2). All hits were not confirmed (ESI, ^† Fig. S1b).
as §4, §5
FL06268 Superstoichiometric and
Figure 1. Examples of sensorgrams from multicycle kinetic experiments with initial fragment hits and SMYD3. A)
Fragments for which crystal structures of the complex with SMYD3 were obtained. A global fit of the sensorgrams
crystal structures were not obtained. […]

For Cn1cnc(S(N)(=O)=O)c1 [FL06268], the “LE (ligand efficiency)” value (SMYD3 (apo, native); LE = −RT ln(KD)/n) was 0.63 (kcal^-1 mol^-1)/HA, the Kd (SMYD3 (apo, native); initial kinetic screening, fragment 250 μM, 15 °C) was 24.5 µM and the kd (SMYD3 (apo, native); initial kinetic screening, fragment 250 μM, 15 °C, 1:1 model) was 0.52 s⁻¹. The kon at 250 µM (SMYD3 (apo, native); initial kinetic screening, fragment 250 μM, 15 °C, 1:1 model, read-out: ka) was 21400 M⁻¹ s⁻¹, the “LE (ligand efficiency)” value ([1]; LE = −RT ln(KD)/n, blocked SMYD3 surface) was 0.63 (kcal^-1 mol^-1)/HA and the Kd ([1]; initial kinetic screening, fragment 250 μM, 15 °C, SMYD3 blocked by EPZ031686) was 24 µM. For the same molecule, the kd ([1]; initial kinetic screening, fragment 250 μM, 15 °C, SMYD3 blocked by EPZ031686, 1:1 model) was 0.83 s⁻¹, the kon at 250 µM ([1]; initial kinetic screening, fragment 250 μM, 15 °C, SMYD3 blocked by EPZ031686, 1:1 model, read-out: ka) was 34100 M⁻¹ s⁻¹ and the “Outcome of multicycle kinetic experiment (sensorgram assessment)” value (SMYD3) was “Superstoichiometric”.
